Source: patent US20240376121A1, “COMPOUNDS AND USES THEREOF” (Foghorn Therapeutics Inc., priority 2021, published 2024)

How the values were obtained:
[1] = biological target: T1, HiBit-BRG1 fusion protein (Homo sapiens, UniProt P51532); test: HiBiT-BRG1 cell-based degradation assay (Nano-Glo HiBiT Lytic Detection); settings: stable HeLa cell line expressing HiBit-BRG1 and LgBit, 24 h incubation; for Dmax: top dose 30 μM, read-out: BRG1 HiBit Degradation Maximum (%); for DC50: read-out: BRMG1 HiBit Degradation IC50
T1 construct: expressed in transfected cells
T1 sequence (P51532 whole entry, the tested form may be a part): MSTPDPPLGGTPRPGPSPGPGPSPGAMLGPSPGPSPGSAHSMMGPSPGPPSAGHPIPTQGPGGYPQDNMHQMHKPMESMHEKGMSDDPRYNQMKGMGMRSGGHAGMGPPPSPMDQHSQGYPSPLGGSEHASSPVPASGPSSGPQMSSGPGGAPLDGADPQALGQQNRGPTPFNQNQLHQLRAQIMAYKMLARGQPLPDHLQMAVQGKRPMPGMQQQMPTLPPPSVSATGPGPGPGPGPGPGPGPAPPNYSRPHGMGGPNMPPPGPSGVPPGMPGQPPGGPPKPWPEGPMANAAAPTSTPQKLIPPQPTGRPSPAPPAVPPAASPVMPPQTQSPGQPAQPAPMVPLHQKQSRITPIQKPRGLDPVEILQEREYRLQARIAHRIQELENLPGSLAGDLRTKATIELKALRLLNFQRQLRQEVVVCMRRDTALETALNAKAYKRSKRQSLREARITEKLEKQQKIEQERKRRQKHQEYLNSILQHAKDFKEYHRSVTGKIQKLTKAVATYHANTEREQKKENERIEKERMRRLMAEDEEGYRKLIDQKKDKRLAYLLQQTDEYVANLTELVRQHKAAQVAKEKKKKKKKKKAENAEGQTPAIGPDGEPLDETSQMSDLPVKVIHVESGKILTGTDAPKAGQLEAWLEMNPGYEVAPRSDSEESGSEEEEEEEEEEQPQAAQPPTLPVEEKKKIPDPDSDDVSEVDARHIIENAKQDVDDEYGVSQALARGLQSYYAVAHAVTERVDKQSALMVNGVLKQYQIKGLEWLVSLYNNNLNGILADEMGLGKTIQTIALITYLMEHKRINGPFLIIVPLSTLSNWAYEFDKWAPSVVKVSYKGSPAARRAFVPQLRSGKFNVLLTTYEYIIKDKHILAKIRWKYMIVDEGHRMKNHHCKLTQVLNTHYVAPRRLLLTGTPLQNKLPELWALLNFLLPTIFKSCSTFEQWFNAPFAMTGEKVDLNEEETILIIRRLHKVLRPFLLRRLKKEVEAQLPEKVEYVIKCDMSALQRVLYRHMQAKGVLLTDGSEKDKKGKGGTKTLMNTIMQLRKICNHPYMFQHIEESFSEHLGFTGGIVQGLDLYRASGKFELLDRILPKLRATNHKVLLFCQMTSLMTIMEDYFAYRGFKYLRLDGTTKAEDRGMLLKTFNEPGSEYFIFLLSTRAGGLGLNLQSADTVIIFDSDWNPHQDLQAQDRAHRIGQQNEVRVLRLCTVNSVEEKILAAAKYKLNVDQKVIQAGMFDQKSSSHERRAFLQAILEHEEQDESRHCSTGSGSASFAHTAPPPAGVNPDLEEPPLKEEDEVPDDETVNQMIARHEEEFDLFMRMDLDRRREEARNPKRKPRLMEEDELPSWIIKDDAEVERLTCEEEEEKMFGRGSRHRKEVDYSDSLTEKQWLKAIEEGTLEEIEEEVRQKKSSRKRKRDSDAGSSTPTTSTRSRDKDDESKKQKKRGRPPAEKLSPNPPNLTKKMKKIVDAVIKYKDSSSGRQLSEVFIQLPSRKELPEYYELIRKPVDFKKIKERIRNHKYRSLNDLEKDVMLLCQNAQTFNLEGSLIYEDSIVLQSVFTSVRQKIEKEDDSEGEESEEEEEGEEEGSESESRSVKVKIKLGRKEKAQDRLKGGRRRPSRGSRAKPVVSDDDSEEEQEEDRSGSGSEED
Method: (§1) Procedure: A stable HeLa cell line expressing HiBiT-BRM was generated. On day 0, 5000 cells were seeded in 40 μL of media into each well of 384-well cell culture plates. On day 1, cells were treated with 120 nL DMSO or 120 nL of 3-fold serially DMSO-diluted compounds (10 points in duplicate with 30 μM as final top dose). Subsequently plates were incubated for 24 h in a standard tissue culture incubator and equilibrated at room temperature for 15 minutes. Nano-Glo HiBiT Lytic Detection System (Promega N3050) reagent was freshly prepared and 20 ul was added to each well. Upon addition of this LgBit-containing reagent, the HiBiT and LgBiT proteins associate to form the luminescent NanoBiT luciferase. The plates were shaken for 10 minutes at room temperature and the bioluminescence read using an EnVision plate reader (PerkinElmer).
For measurement of BRG1 degradation, a stable HeLa cell line expressing HiBit-BRG1 and LgBit was generated. The same protocol as above was then followed.
(§2) The degradation % was calculated using the following formula: % degradation=100%−100%×(LumSample−LumLC)/(LumHC−LumLC). DMSO treated cells are employed as High Control (HC) and 2 μM of a known BRM/BRG1 degrader standard treated cells are employed as Low Control (LC).

HiBit-BRM fusion protein = biological target: T2, HiBit-BRM fusion protein (Homo sapiens, UniProt P51531); test: HiBiT-BRM cell-based degradation assay (Nano-Glo HiBiT Lytic Detection); settings: stable HeLa cell line expressing HiBiT-BRM, 24 h incubation; for BRM HiBit Degradation Maximum (%): top dose 30 μM; for DC50: read-out: BRM HiBit Degradation IC50
T2 construct: expressed in transfected cells
T2 sequence (P51531 whole entry, the tested form may be a part): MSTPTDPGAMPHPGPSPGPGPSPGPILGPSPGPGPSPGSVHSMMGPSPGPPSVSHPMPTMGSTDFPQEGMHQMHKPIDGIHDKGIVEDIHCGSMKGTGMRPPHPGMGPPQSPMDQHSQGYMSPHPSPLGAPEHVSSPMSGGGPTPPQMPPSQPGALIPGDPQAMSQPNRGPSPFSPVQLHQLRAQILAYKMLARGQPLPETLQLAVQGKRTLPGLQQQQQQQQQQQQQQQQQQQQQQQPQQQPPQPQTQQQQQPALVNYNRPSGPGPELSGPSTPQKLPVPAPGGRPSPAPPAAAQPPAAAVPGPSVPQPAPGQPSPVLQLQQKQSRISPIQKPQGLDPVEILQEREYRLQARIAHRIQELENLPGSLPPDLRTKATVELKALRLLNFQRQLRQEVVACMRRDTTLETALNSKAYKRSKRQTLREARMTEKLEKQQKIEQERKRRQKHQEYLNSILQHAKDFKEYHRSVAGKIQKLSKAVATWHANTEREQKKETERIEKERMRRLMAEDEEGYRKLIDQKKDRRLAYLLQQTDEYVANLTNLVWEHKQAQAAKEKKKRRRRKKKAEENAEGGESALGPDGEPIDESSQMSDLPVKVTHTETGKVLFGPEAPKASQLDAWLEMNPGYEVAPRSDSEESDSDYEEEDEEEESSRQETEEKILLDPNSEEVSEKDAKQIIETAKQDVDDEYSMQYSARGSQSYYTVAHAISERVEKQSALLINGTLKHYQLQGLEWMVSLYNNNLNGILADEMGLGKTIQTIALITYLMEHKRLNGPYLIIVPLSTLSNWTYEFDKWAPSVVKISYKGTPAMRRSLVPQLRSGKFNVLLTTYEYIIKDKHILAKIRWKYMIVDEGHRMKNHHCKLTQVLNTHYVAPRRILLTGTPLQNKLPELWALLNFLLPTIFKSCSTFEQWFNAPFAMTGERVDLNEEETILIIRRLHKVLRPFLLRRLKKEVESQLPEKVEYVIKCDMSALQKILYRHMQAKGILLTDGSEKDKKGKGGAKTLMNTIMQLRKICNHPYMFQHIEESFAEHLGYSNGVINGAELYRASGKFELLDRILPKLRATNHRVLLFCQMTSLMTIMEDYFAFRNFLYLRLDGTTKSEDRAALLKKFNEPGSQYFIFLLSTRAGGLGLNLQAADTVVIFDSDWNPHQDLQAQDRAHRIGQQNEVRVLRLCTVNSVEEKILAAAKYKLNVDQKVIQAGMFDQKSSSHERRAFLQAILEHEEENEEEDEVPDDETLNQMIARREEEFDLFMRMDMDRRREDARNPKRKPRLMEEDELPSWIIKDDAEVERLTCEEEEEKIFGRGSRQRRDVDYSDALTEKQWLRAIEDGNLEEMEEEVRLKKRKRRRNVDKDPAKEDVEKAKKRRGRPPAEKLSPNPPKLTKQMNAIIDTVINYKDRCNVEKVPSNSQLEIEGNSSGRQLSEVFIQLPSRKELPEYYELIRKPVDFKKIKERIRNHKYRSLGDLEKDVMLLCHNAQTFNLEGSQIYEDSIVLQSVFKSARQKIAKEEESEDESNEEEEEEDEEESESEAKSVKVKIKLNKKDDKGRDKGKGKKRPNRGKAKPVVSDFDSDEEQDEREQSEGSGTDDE
Method: as §1, §2

Row | Compound | Dmax [1] [%] | DC50 [1] [µM] | BRM HiBit Degradation Maximum (%) (HiBit-BRM fusion protein) | DC50 (HiBit-BRM fusion protein) [µM]
1 | Cc1ncsc1-c1ccc([C@H](C)NC(=O)[C@@H]2C[C@@H](O)CN2C(=O)C(c2cc(C3CC(N4CCC(c5sc6nnc(-c7ccccc7O)cc6c5C)CC4)C3)no2)C(C)C)cc1 (single isomer, unassigned) [Compound 34] | < 50 | ≥ 1 | A (“A” indicates maximum degradation ≥ 75%) | ≥ 0.01
2 | Cc1ncsc1-c1ccc([C@H](C)NC(=O)[C@@H]2C[C@@H](O)CN2C(=O)[C@@H](c2cc(N3CCN(C(=O)[C@@H]4CCc5sc6nnc(-c7ccccc7O)cc6c5C4)CC3)no2)C(C)C)cc1 (single isomer, unassigned) [Compound 53] | < 50 | ≥ 1 | C (“C” indicates maximum degradation < 50%) | ≥ 1
3 | Cc1ncsc1-c1ccc(CNC(=O)[C@@H]2C[C@@H](O)CN2C(=O)[C@H](c2cc(N3CCOCC3)no2)C(C)C)c(OCCCN2CCC(c3sc4nnc(-c5ccccc5O)cc4c3C)CC2)c1 (single isomer, unassigned) [Compound 55] | < 50 | ≥ 1 | A (“A” indicates maximum degradation ≥ 75%) | ≥ 1
4 | Cc1ncsc1-c1ccc(CNC(=O)[C@@H]2C[C@@H](O)CN2C(=O)[C@@H](c2cc(N3CCOCC3)no2)C(C)C)c(OCCCN2CCC(c3sc4nnc(-c5ccccc5O)cc4c3C)CC2)c1 (single isomer, unassigned) [Compound 56] | < 50 | ≥ 1 | B (“B” indicates maximum degradation ≥ 50%) | ≥ 0.01
5 | Cc1ncsc1-c1ccc([C@H](C)NC(=O)[C@@H]2C[C@@H](O)CN2C(=O)[C@@H](c2cc(OCCN3CC(c4cc5cc(-c6ccccc6O)nnc5s4)C3)no2)C(C)C)cc1 [Compound 1, (2S,4R)-4-hydroxy-1-((R)-2-(3-(2-(3-(3-(2-hydroxyphenyl)thieno[2,3-c]pyridazin-6-yl)azetidin-1-yl)ethoxy)isoxazol-5-yl)-3-methylbutanoyl)-N—((S)-1-(4-(4-methylthiazol-5-yl)phenyl)ethyl)pyrrolidine-2-carboxamide] | < 50 | ≥ 1 | B (“B” indicates maximum degradation ≥ 50%) | ≥ 0.01
6 | Cc1ncsc1-c1ccc([C@H](C)NC(=O)[C@@H]2C[C@@H](O)CN2C(=O)[C@@H](c2cc(OCCN3CCC(c4cc5cc(-c6ccccc6O)nnc5s4)CC3)no2)C(C)C)cc1 [Compound 2, (2S,4R)-4-hydroxy-1-((R)-2-(3-(2-(4-(3-(2-hydroxyphenyl)thieno[2,3-c]pyridazin-6-yl)piperidin-1-yl)ethoxy)isoxazol-5-yl)-3-methylbutanoyl)-N—((S)-1-(4-(4-methylthiazol-5-yl)phenyl)ethyl)pyrrolidine-2-carboxamide] | < 50 | ≥ 1 | A (“A” indicates maximum degradation ≥ 75%) | ≥ 0.01
7 | Cc1ncsc1-c1ccc([C@H](C)NC(=O)[C@@H]2C[C@@H](O)CN2C(=O)[C@@H](c2cc(N3CCN(C(=O)CN4CC(c5cc6cc(-c7ccccc7O)nnc6s5)C4)CC3)no2)C(C)C)cc1 [Compound 3, (2S,4R)-4-hydroxy-1-[(2R)-2-{3-[4-(2-{3-[3-(2-hydroxyphenyl)thieno[2,3-c]pyridazin-6-yl]azetidin-1-yl}acetyl)piperazin-1-yl]-1,2-oxazol-5-yl}-3-methylbutanoyl]-N-[(1S)-1-[4-(4-methyl-1,3-thiazol-5-yl)phenyl]ethyl]pyrrolidine-2-carboxamide] | < 50 | ≥ 1 | A (“A” indicates maximum degradation ≥ 75%) | ≥ 0.1
8 | Cc1ncsc1-c1ccc([C@H](C)NC(=O)[C@@H]2C[C@@H](O)CN2C(=O)[C@H](c2cc(N3CCC(C(=O)N4CC(c5cc6cc(-c7ccccc7O)nnc6s5)C4)CC3)no2)C(C)C)cc1 [Compound 4, (2S,4R)-4-hydroxy-1-((S)-2-(3-(4-(3-(3-(2-hydroxyphenyl)thieno[2,3-c]pyridazin-6-yl)azetidine-1-carbonyl)piperidin-1-yl)isoxazol-5-yl)-3-methylbutanoyl)-N—((S)-1-(4-(4-methylthiazol-5-yl)phenyl)ethyl)pyrrolidine-2-carboxamide] | < 50 | ≥ 1 | C (“C” indicates maximum degradation < 50%) | ≥ 1
9 | Cc1ncsc1-c1ccc([C@H](C)NC(=O)[C@@H]2C[C@@H](O)CN2C(=O)[C@@H](c2cc(N3CCC(C(=O)N4CC(c5cc6cc(-c7ccccc7O)nnc6s5)C4)CC3)no2)C(C)C)cc1 [Compound 5, (2S,4R)-4-hydroxy-1-((R)-2-(3-(4-(3-(3-(2-hydroxyphenyl)thieno[2,3-c]pyridazin-6-yl)azetidine-1-carbonyl)piperidin-1-yl)isoxazol-5-yl)-3-methylbutanoyl)-N—((S)-1-(4-(4-methylthiazol-5-yl)phenyl)ethyl)pyrrolidine-2-carboxamide] | < 50 | ≥ 1 | A (“A” indicates maximum degradation ≥ 75%) | ≥ 0.01
10 | Cc1ncsc1-c1ccc([C@H](C)NC(=O)[C@@H]2C[C@@H](O)CN2C(=O)[C@@H](c2cc(N3CCN(CC(=O)N4CC(c5cc6cc(-c7ccccc7O)nnc6s5)C4)CC3)no2)C(C)C)cc1 [Compound 6, (2S,4R)-4-hydroxy-1-[(2R)-2-{3-[4-(2-{3-[3-(2-hydroxyphenyl)thieno[2,3-c]pyridazin-6-yl]azetidin-1-yl}-2-oxoethyl)piperazin-1-yl]-1,2-oxazol-5-yl}-3-methylbutanoyl]-N-[(1S)-1-[4-(4-methyl-1,3-thiazol-5-yl)phenyl]ethyl]pyrrolidine-2-carboxamide] | < 50 | ≥ 1 | B (“B” indicates maximum degradation ≥ 50%) | ≥ 0.1
11 | Cc1ncsc1-c1ccc([C@H](C)NC(=O)[C@@H]2C[C@@H](O)CN2C(=O)[C@@H](c2cc(N3CCC(CN4CC(c5cc6cc(-c7ccccc7O)nnc6s5)C4)CC3)no2)C(C)C)cc1 [Compound 7] | < 50 | ≥ 1 | A (“A” indicates maximum degradation ≥ 75%) | ≥ 0.01
12 | Cc1ncsc1-c1ccc([C@H](C)NC(=O)[C@@H]2C[C@@H](O)CN2C(=O)[C@@H](c2cc(OCCN3CCC(c4sc5nnc(-c6ccccc6O)cc5c4C)CC3)no2)C(C)C)cc1 [Compound 8, (2S,4R)-4-hydroxy-1-[(2R)-2-[3-(2-{4-[3-(2-hydroxyphenyl)-5-methylthieno[2,3-c]pyridazin-6-yl]piperidin-1-yl}ethoxy)-1,2-oxazol-5-yl]-3-methylbutanoyl]-N-[(1S)-1-[4-(4-methyl-1,3-thiazol-5-yl)phenyl]ethyl]pyrrolidine-2-carboxamide] | < 50 | ≥ 1 | A (“A” indicates maximum degradation ≥ 75%) | < 0.01
